Experiments:
PLCβ3 = PLCβ3 (Homo sapiens (Human), UniProt Q01970); assay: PLCβ inhibition assay; type: biochemical; conditions: Table 7
Protocol: PLCβ inhibition assay: Lipid vesicles containing 200 μM phosphatidylethanolamine, 50 μM PIP2 (Avanti Polar Lipids), and ˜4000-8000 cpm [^3H]-labeled PIP2 (Perkin-Elmer) per assay were generated by combining the lipids in a borosilicate glass tube and drying the mixture under a stream of nitrogen. Dried lipids were resuspended in 50 mM HEPES pH 7, 80 mM KCl, 2 mM EGTA and 1 mM DTT using a bath sonicator. Activity assays were performed in a final volume of 60 μL containing 3 ng mL^−1 PLCβ3, 50 mM HEPES pH 7, 80 mM KCl, 15 mM NaCl, 0.83 mM MgCl2, 3 mM DTT, 1 mg mL^−1 BSA, 2.5 mM EGTA, 0.2 mM EDTA, 2% DMSO, and enough CaCl2 to give a free concentration of ˜200 nM. […] The reactions were initiated by the addition of liposomes and transferred to 30° C. for 5 min. Reactions were terminated by the addition of 100 μL 10 mg mL^−1 BSA and 200 μL 10% (w/v) ice-cold trichloroacetic acid. The reactions were centrifuged at 8000 g for 5 min to pellet proteins and liposomes, and 200 μL of the resulting supernatant containing free [^3H]-IP3 was measured by scintillation counting (Ghosh et al., (2004) Methods Mol Biol 237, 67-75) GSK-3β inhibition assay: […]

RGS4 = RGS4 (Homo sapiens (Human), UniProt P49798); assay: Steady-state GAP assay (malachite green); type: biochemical
Protocol: Steady-state GAP Assay: Steady-state hydrolysis of unlabled GTP was measured using malachite green in a receptor-independent assay utilizing a mutant Gαi1 (R178M, A326S) (Zielinski et al., (2009) J Biomol Screen 14, 1195-1206). These mutations facilitate the release of GDP from the enzyme making the GTP hydrolysis step rate-limiting (Lielinski et al., supra). […] The reaction is allowed to proceed for 2 hours at room temperature and then quenched with an H2SO4/malachite green dye solution. Immediately after addition of malachite green, sodium citrate was added as a colorimetric stablizer. Released inorganic phosphate was measured as an increase in absorbance (Abs630) from the complex of phosphate with malachite green (Chang, et al., 2008). Background control samples lacking Gα or RGS were used to determine the rate of non-enzymatic GTP hydrolysis.

αAR = assay: NIMH Psychoactive Drug Screening Program receptor panel
Protocol: (§1) Furthermore, the compound was tested against a panel of receptors via collaboration with the NIMH Psycoactive Drug Screening Program.

[1] = tested on: muscarinic class of GPCRs; assay: as above
Protocol: as §1

RGS4/Gα0 interaction = RGS4/Gα0 interaction (Homo sapiens (Human), UniProt P49798); assay: RGS4-GFP membrane translocation (confocal microscopy, HEK-293T); type: cell-based; conditions: 100 μM where stated
Protocol: Cellular Localization Studies:
HEK-293T cells grown to 80-90% confluency in 6-well dishes in DMEM supplemented with 10% fetal bovine serum and Penicillin (100 units/ml)-Streptomycin (100 μg/ml) under 5% CO2 at 37° C. RGS and Gα0 expression was induced by transient co-transfection with either 250 ng of full-length human RGS4 with an N-terminal GFP tag (RGS4pEGFP-C1) or a C-terminal RGS4-GFP (RGS4pDEST47) and 250 ng of pcDNA3.1 or pcDNA with wildtype human Gα0. Cells were split onto poly-D-lysine coated glass coverslips and cultured for 24-48 hours after transfection before live cell imaging. Images were acquired on an Olympus Fluoview 500 confocal microscope with a 60×1.40 numerical aperture (N.A) oil objective. Images were obtained by taking a series of stacks every 0.5 μm through the cell and combining the images into a composite stack. The light source for the fluorescent studies was a 488 nm laser with a 505-525 nm bandpass filter. Images were quantified using NIH ImageJ software version 1.43r.
Confocal Microscopy: HEK-293T cells grown to 80-90% confluency in 6-well dishes in DMEM supplemented with 10% fetal bovine serum and Penicillin (100 units/ml)-Streptomycin (100 μg/ml) under 5% CO2 at 37° C. […] Images were quantified using NIH ImageJ software version 1.43r.

RGS19 = RGS19 (Homo sapiens (Human), UniProt P49795); assay: FCPIA: Gαo binding to RGS19; conditions: Table 7
Protocol: FCPIA Dose Response and Reversibility Experiments:
FCPIA was performed as previously described using chemically biotinylated RGS proteins and AlexaFluor-532 labeled Gα0. (Roman et al., J Biomol Screen, 2009; Blazer, L. L., et al., Mol Pharmacol).
RGS/Gα binding studies: The binding of biotinylated RGS proteins to fluorescently labeled Gαo was measured by Flow Cytometry Protein Interaction Assay (FCPIA) method previously described (Roman et al., (2009) J Biomol Screen.; Blazer et al., (2010) Curr Protoc Cytom Chapter 13, Unit 13 11 11-15; Roman et al., (2007) Mol Pharmacol 71, 169-175) as were the measures of compound reversibility.

Tail suspension test = type: in vivo, mice
Source text: This Example describes antidepressant activity of compounds of embodiments of the present invention. Antidepressant-like effects of CCG 203769: The tail suspension test in mice is a model of learned helplessness and is used as an assay for antidepressant medications. In this test antidepressant drugs (such as SSRIs) decrease the time the animals spend immobile by increasing escape-like behaviors.

Sequence of RGS4 (P49798 whole entry, species assumed): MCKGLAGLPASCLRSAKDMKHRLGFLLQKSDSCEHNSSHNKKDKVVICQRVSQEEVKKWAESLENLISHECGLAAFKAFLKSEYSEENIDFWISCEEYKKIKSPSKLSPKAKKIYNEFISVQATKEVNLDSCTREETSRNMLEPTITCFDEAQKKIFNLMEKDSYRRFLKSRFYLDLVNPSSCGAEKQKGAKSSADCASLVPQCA
Sequence of RGS4/Gα0 interaction (P49798 whole entry): as the sequence (P49798 whole entry, species assumed) above
Sequence of PLCβ3 (Q01970 whole entry, species assumed): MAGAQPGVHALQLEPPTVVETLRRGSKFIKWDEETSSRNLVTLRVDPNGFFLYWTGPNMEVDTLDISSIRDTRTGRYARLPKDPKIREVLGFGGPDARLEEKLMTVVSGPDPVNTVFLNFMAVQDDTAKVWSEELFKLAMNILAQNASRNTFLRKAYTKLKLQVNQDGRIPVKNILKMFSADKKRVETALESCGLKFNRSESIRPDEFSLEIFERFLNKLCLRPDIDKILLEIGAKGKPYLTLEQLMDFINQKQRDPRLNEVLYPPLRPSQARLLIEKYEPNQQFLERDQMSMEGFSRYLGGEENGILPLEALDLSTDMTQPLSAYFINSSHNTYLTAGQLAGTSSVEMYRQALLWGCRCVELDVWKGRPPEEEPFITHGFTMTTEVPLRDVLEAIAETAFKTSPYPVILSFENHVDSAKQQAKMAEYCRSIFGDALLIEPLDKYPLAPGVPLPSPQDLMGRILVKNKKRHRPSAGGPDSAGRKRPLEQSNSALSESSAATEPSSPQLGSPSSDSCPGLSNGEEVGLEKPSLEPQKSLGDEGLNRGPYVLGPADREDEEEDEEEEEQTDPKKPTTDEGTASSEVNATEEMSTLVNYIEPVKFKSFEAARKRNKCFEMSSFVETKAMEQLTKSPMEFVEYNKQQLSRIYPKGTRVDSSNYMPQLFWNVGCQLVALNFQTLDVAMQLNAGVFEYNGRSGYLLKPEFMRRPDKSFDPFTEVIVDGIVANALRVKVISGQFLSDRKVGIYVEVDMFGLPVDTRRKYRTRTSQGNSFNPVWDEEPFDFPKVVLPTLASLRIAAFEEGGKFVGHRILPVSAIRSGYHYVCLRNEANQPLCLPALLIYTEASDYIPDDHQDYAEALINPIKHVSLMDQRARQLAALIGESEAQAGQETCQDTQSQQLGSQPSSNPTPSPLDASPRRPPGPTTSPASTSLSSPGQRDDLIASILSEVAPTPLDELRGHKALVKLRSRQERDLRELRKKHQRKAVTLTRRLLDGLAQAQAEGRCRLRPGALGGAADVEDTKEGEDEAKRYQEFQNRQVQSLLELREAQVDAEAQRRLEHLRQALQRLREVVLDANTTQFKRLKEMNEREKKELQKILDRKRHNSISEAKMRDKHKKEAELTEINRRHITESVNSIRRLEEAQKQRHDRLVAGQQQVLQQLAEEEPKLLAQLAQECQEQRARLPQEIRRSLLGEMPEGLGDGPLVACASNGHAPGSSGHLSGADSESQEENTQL
Sequence of RGS19 (P49795 whole entry, species assumed): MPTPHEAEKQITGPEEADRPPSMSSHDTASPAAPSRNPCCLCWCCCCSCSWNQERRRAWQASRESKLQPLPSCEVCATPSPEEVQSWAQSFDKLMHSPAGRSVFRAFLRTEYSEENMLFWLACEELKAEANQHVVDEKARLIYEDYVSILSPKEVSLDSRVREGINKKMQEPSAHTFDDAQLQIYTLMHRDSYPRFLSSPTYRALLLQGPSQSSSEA

CCCCn1c(=O)sn(CC)c1=O [CCG-203769, 2-ethyl-4-butyl-1,2,4-thiadiazolidine-3,5-dione]
IC50 (PLCβ3): > 100 µM
inhibition of RGS4 effect in steady-state GTPase assay (RGS4): potently inhibits the functional effect of RGS4
effect on αAR (αAR): able to inhibit
effect upon muscarinic class of GPCRs [1]: little to no observable effect
reversal of Gα0-induced RGS4 membrane translocation (RGS4/Gα0 interaction): reverses the membrane translocation
IC50 (RGS19): 0.14 µM
effect on immobility in RGS4 knockout mice (Tail suspension test; 10 mg/kg): lost
immobility time (Tail suspension test; IP, significant effect at 10 mg/kg): decreases their immobility time in a dose-dependent manner

Reference: US8865750B2, “Small molecule inhibitors of RGS proteins” (The Regents of The University of Michigan, priority 2011, dated 2014)
